Among the data in patent US10703748B2, “Diazanaphthalen-3-yl carboxamides and preparation and use thereof” (Samumed, LLC, priority 2017, dated 2020) are EC50 and inhibition values, retold here.

In experiment [1] the test system is SW480 colon carcinoma cells. The experiment in a line: Cell viability assay (CellTiter-Glo). Conditions: Homo sapiens; for EC50: SW480, 96 h; for inhibition at 10 µM: SW480, read-out: percent inhibition at 10 μM.
Experiment [2] deals with Tau phosphorylation at Ser396 (pSer396). The experiment in a line: Tau phosphorylation at Ser396 (pSer396) in SH-SY5Y cells, ELISA / western blot.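 Note: decrease in pSer396 Tau measured in lysates of treated cells by colorimetric ELISA or chemiluminescent western blot, same pSer396 antibody for both.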 Conditions: Homo sapiens; SH-SY5Y cells, overnight (16-18 h); read-out: pSer396 Tau EC50. In kind it is cell-based, human. For orientation: ELISA stands for enzyme-linked immunosorbent assay.
Experimental: Two days before treatment, cells were seeded onto 96 well plates at 5×10^4 cells/well.
The above synthesized compounds were screened using the cell assay procedure to assess decrease Tau phosphorylation at Ser396 (pSer396) described below.
Cells were lysed with RIPA buffer complemented with phosphatase and protease inhibitors then lysates were spun down at 12,000 g for 10 min to remove any cellular debris.
The next experiment has as its target GSK3β kinase (Homo sapiens, UniProt P49841). Kind of experiment: GSK3β kinase activity (Ser/Thr 09 peptide Z-lyte FRET assay). The settings on record: recombinant kinase, 46 μM ATP, one hour at room temperature; read-out: EC50. In kind it is biochemical.
The next experiment relates to IL-6. Kind of experiment: IL-6 inhibition in LPS-stimulated human peripheral blood mononuclear cells (HTRF). Conditions: Homo sapiens, PBMC; for EC50: 22 h; for inhibition at 10 µM: read-out: percentage in parentheses after EC50 >10.
The target of the next experiment is DYRK1A kinase (Homo sapiens, UniProt Q13627). Kind of experiment: DYRK1A kinase activity (Ser/Thr 18 peptide Z-lyte FRET assay).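 Note: kinase activity read as coumarin/fluorescein emission ratio after development step, with unphosphorylated and phosphorylated peptide forms setting 0% and 100% controls, values from dose-response curves.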 The experiment is classed as biochemical. Conditions: recombinant DYRK1A, 30 μM ATP, one hour at room temperature.
Experiment [3] concerns α-smooth muscle actin (aSMA) positive LL29 cells. The experiment in a line: Inhibition of the fibrotic process: αSMA staining in TGF-β1 treated LL29 fibroblasts from IPF patients. The settings on record: Homo sapiens, Fibroblast; for EC50: 96 h.
Experiment [4] concerns Wnt-responsive Sp5-Luc reporter in SW480 colon carcinoma cells. The experiment in a line: Screening assay for Wnt activity (Sp5-Luc reporter gene assay). The settings on record: Homo sapiens; for EC50: SW480; for inhibition at 10 µM: SW480, read-out: percent inhibition at 10 μM.
Experiment [5] relates to secreted cytokines TNFα, IL-6 and KC-GRO. The experiment in a line: Secreted cytokines in Lipopolysaccharide-stimulated BV-2 cells (Table 9 does not say which cytokine). The experiment is classed as cell-based, mouse. Conditions: Mus musculus, BV-2, 5 h; read-out: EC50.

SMILES strings stand for the structures.

GSK3β kinase, sequence (P49841 whole entry): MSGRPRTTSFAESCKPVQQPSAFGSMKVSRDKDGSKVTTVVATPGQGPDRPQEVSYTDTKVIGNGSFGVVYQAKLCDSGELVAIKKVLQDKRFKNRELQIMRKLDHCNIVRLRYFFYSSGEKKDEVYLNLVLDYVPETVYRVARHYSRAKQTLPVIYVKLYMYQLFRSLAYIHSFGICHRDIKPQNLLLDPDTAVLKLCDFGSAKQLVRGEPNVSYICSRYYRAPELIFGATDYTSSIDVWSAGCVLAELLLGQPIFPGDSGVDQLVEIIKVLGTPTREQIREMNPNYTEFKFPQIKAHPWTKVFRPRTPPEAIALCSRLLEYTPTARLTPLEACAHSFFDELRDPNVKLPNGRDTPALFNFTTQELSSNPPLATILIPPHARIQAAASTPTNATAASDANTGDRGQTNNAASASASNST

The EC50 is the concentration that produces a half-maximal response. As for `Cc1ncc(-c2ccc3cnc(NC(=O)[C@H]4CC[C@H](CO)CC4)cc3n2)s1` [Compound 4558, trans-4-(Hydroxymethyl)-N-(2-(2-methylthiazol-5-yl)-1,6-naphthyridin-7-yl) cyclohexane-1-carboxamide], the EC50 in experiment [1] is 5800 nM; in experiment [2] it was 7000 nM; at GSK3β kinase, 100 nM; in the experiment with IL-6, 9230 nM; at DYRK1A kinase, 4 nM; in experiment [3], 277 nM. The results for the EC50 in experiment [4] and in experiment [5] were 2800 nM and 165 nM, respectively.
`Cc1ncc(C(=O)Nc2cc3nc(-c4cnc(C)n4C)ccc3cn2)s1` [Compound 447, N-(2-(1,2-Dimethyl-1H-imidazol-5-yl)-1,6-naphthyridin-7-yl)-2-methylthiazole-5-carboxamide]: the EC50 in experiment [1] is 165 nM; in experiment [2], 562 nM; on GSK3β kinase it was 48 nM; in the experiment on IL-6 it was 4250 nM; at DYRK1A kinase it was 1 nM; in experiment [3] it was 517 nM. The EC50 in experiment [4] is 107 nM; in experiment [5], 83 nM.
For the compound `Cn1cc(-c2ccc3cnc(NC(=O)C4CCN(Cc5ncco5)CC4)cc3n2)cn1` [Compound 95, N-(2-(1-Methyl-1H-pyrazol-4-yl)-1,6-naphthyridin-7-yl)-1-(oxazol-2-ylmethyl)piperidine-4-carboxamide], the EC50 was greater than 10000 nM in experiment [1]; 1700 nM in experiment [2]; 84 nM at GSK3β kinase; 9090 nM with IL-6; 6 nM on DYRK1A kinase; 444 nM in experiment [3]. The EC50 is 1540 nM in experiment [4] and 66 nM in experiment [5]. Also, the inhibition at 10 µM in experiment [1] turned out to be 38.6%.
Take `Cn1ncc(-c2ccc3cnc(NC(=O)C4CC5(C4)CN(CCF)C5)nc3c2)c1CN1CCCCC1` [Compound 1186, 2-(2-Fluoroethyl)-N-(7-(1-methyl-5-(piperidin-1-ylmethyl)-1H-pyrazol-4-yl)quinazolin-2-yl)-2-azaspiro[3.3]heptane-6-carboxamide]: the EC50 in experiment [1] is greater than 10000 nM; in experiment [2], 5400 nM; at GSK3β kinase, 402 nM; in the experiment with IL-6 it was greater than 10000 nM; on DYRK1A kinase it was 42 nM; in experiment [3], greater than 10000 nM. Moreover, the EC50 was greater than 10000 nM in experiment [4] and 5600 nM in experiment [5]. Besides, the inhibition at 10 µM in experiment [1] was 35.2%; with IL-6, 6.7%; in experiment [3] (read-out: percentage in parentheses after EC50 >10) it was 24.5%; in experiment [4] it was 35.8%.
On to `C[C@H]1CCCN1CC(=O)Nc1cc2cc(-c3cnn(C)c3)ncc2cn1` [Compound 3674, (S)—N-(6-(1-Methyl-1H-pyrazol-4-yl)-2,7-naphthyridin-3-yl)-2-(2-methylpyrrolidin-1-yl)acetamide], for which the EC50 in experiment [1] is 6900 nM; in experiment [2], 192 nM; on GSK3β kinase, 21 nM; in the experiment with IL-6 it was greater than 10000 nM; at DYRK1A kinase, 7 nM; in experiment [3], 604 nM. The EC50 in experiment [4] was determined as 512 nM; in experiment [5], 6800 nM. In the experiment with IL-6, the inhibition at 10 µM was determined as 1.7%.
For `O=C(Nc1cc2cc(-c3cncc(NC4CCNCC4)n3)ncc2cn1)C1CCOCC1` [Compound 4504, N-(6-(6-(Piperidin-4-ylamino)pyrazin-2-yl)-2,7-naphthyridin-3-yl) tetrahydro-2H-pyran-4-carboxamide], the EC50 was greater than 10000 nM in experiment [1]; 10000 nM in experiment [2]; 77 nM on GSK3β kinase; greater than 10000 nM in the experiment with IL-6; 4 nM on DYRK1A kinase; 384 nM in experiment [3]. For the same compound, the figures for the EC50 in experiment [4] and in experiment [5] were 3640 nM and 524 nM, respectively. Besides, the inhibition at 10 µM in experiment [1] came out at 47.9%; with IL-6 it was 7.3%.
For `O=C(Nc1ncc2ccc(-c3cncs3)cc2n1)[C@H]1CC[C@H](CO)CC1` [Compound 4586, trans-4-(hydroxymethyl)-N-(7-(thiazol-5-yl)quinazolin-2-yl)cyclohexane-1-carboxamide], the EC50 in experiment [1] is greater than 10000 nM; in experiment [2], 8800 nM; at GSK3β kinase, 336 nM; in the experiment with IL-6 it was greater than 10000 nM; on DYRK1A kinase it was 2 nM; in experiment [3] it was 4440 nM. In addition, the EC50 is greater than 10000 nM in experiment [4] and 380 nM in experiment [5]. For the same compound, the inhibition at 10 µM in experiment [1] stood at 25.1%; with IL-6, 4.8%; in experiment [4] it was 29.6%.
Consider `Cn1cc(-c2cc3cc(NC(=O)C4CCN(S(C)(=O)=O)CC4)ncc3cn2)cn1` [Compound 3699, N-(6-(1-Methyl-1H-pyrazol-4-yl)-2,7-naphthyridin-3-yl)-1-(methylsulfonyl) piperidine-4-carboxamide], for which the EC50 in experiment [1] is 6720 nM; in experiment [2] it was 43 nM; on GSK3β kinase, 6 nM; with IL-6, greater than 10000 nM; on DYRK1A kinase, 2 nM; in experiment [3], 25 nM. The EC50 in experiment [4] is 234 nM; in experiment [5], greater than 10000 nM. In addition, the inhibition at 10 µM in the experiment with IL-6 stood at 8.4%.
For the compound `Cn1cncc1-c1ccc2cnc(NC(=O)c3cccc(CN4CCCC4)c3)cc2n1` [Compound 450, N-(2-(1-Methyl-1H-imidazol-5-yl)-1,6-naphthyridin-7-yl)-3-(pyrrolidin-1-ylmethyl)benzamide], the EC50 in experiment [1] was 409 nM; in experiment [2] it was 3760 nM; on GSK3β kinase it was 350 nM; with IL-6, 3510 nM; on DYRK1A kinase, 1 nM; in experiment [3], 517 nM. Moreover, the EC50 in experiment [4] turned out to be 279 nM; in experiment [5], 3000 nM.
Take `CN1CCC(C(=O)Nc2ncc3ccc(-c4cnsc4)cc3n2)CC1` [Compound 1598, N-(7-(Isothiazol-4-yl)quinazolin-2-yl)-1-methylpiperidine-4-carboxamide]: the EC50 in experiment [1] is greater than 10000 nM; in experiment [2], greater than 10000 nM; at GSK3β kinase, 4180 nM; in the experiment on IL-6, greater than 10000 nM; on DYRK1A kinase, 27 nM; in experiment [3] it was 1270 nM. Further, the EC50 is greater than 10000 nM in experiment [4] and 3100 nM in experiment [5]. In addition, the inhibition at 10 µM in experiment [1] turned out to be 8.4%; with IL-6, 7.5%; in experiment [4] it was 15.5%.
In the case of `O=C(Nc1cc2cc(-c3cnco3)ncc2cn1)C1CCN(C(=O)CN2CCCC2)CC1` [Compound 4159, N-(6-(Oxazol-5-yl)-2,7-naphthyridin-3-yl)-1-(2-(pyrrolidin-1-yl)acetyl) piperidine-4-carboxamide], the EC50 is 8440 nM in experiment [1]; 989 nM in experiment [2]; 72 nM at GSK3β kinase; greater than 10000 nM in the experiment on IL-6; 4 nM on DYRK1A kinase; 347 nM in experiment [3]. For the same compound, the values for the 50% effective concentration (EC50) in experiment [4] and in experiment [5] were 972 nM and 859 nM, respectively. The inhibition at 10 µM in the experiment on IL-6 was 10.1%.
Regarding `CN1CCC(Oc2ccc(C(=O)Nc3cc4cc(-c5cnn(C)c5)ncc4cn3)cc2)CC1` [Compound 3772, N-(6-(1-Methyl-1H-pyrazol-4-yl)-2,7-naphthyridin-3-yl)-4-((1-methylpiperidin-4-yl)oxy)benzamide], the EC50 was 8160 nM in experiment [1]; 7280 nM in experiment [2]; 390 nM on GSK3β kinase; greater than 10000 nM with IL-6; 8 nM at DYRK1A kinase; 1140 nM in experiment [3]. Moreover, the EC50 in experiment [4] was 221 nM; in experiment [5], no less than 10000 nM. For the same compound, the inhibition at 10 µM with IL-6 is 10.6%.
For the compound `CN1CCCN(CC(=O)Nc2cc3cc(-c4cnn(C)c4)ncc3cn2)CC1` [Compound 3733, 2-(4-Methyl-1,4-diazepan-1-yl)-N-(6-(1-methyl-1H-pyrazol-4-yl)-2,7-naphthyridin-3-yl)acetamide], the EC50 is greater than 10000 nM in experiment [1]; 227 nM in experiment [2]; 43 nM at GSK3β kinase; greater than 10000 nM in the experiment on IL-6; 16 nM on DYRK1A kinase; 1830 nM in experiment [3]. For the same compound, the EC50 came out at 515 nM in experiment [4] and 3700 nM in experiment [5]. The inhibition at 10 µM in experiment [1] was found to be 37.3%; in the experiment with IL-6 it was 6.2%.
